Measured values as given in article PMC4503722, “Novel Phenotypic Outcomes Identified for a Public Collection of Approved Drugs from a Publicly Accessible Panel of Assays” (PLoS ONE, 2015).
Read-outs that look alike come from different tables or passages of the source.

Experiments:
[1] = tested on: ECFC/ADSC co-culture cell nuclei number; conditions: for IC50: read-out: VEGF_ADSC\ECFC Angio Hoechst NucArea summarized IC50
[2] = target: T1, hJAK2 (Homo sapiens, UniProt O60674); experiment: Cerep LANCE kinase assay hJAK2 (S1 assay 33); format: biochemical; conditions: for IC50: read-out: hJAK2 LANCE summarized IC50
T1 construct: purchased Cerep (LANCE kinase assay platform, contract assay)

[3] = target: T2, hFLT3 (Homo sapiens, UniProt P36888); experiment: Cerep LANCE kinase assay hFLT3 (S1 assay 35); format: biochemical; conditions: for IC50: read-out: hFLT3 LANCE summarized IC50
T2 construct: purchased Cerep (LANCE kinase assay platform, contract assay)

[4] = target: T3, hKDR (Homo sapiens, UniProt P35968); experiment: Cerep LANCE kinase assay hKDR (S1 assay 32); format: biochemical; conditions: for IC50: read-out: hKDR LANCE summarized IC50
T3 construct: purchased Cerep (LANCE kinase assay platform, contract assay)

[5] = tested on: RKO; experiment: cells; format: cell-based; conditions: for IC50: read-out: Basal_Viability ATP RKO summarized IC50
[6] = tested on: DLD-1; experiment: cells; format: cell-based; conditions: for IC50: read-out: Basal_Viability ATP DLD-1 summarized IC50
[7] = tested on: SW480; experiment: cells; format: cell-based; conditions: for IC50: read-out: Basal_Viability ATP SW480 summarized IC50
[8] = tested on: HCT116; experiment: cells; format: cell-based; conditions: basal; for IC50: read-out: Basal_Viability ATP HCT116 summarized IC50
[9] = tested on: HT-29; experiment: cells; format: cell-based; conditions: for IC50: read-out: Basal_Viability ATP HT-29 summarized IC50
[10] = tested on: SNU-C1; experiment: cells; format: cell-based; conditions: for IC50: read-out: Basal_Viability ATP SNU-C1 summarized IC50
[11] = tested on: Colo320; experiment: cells; format: cell-based; conditions: for IC50: read-out: Basal_Viability ATP Colo 320 summarized IC50
[12] = tested on: HeLa cells; experiment: cells; format: cell-based;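 as to Hela CellCycMod PI 4N summarized IC50: value tracks stimulation of 4N DNA content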
[13] = tested on: endothelial tube formation in co-cultures of ECFCs and ADSCs treated with VEGF; experiment: cells; format: cell-based, human; conditions: for IC50: read-out: VEGF_ADSC\ECFC Angio CD31 TubeArea summarized IC50
[14] = target: T4, hGSK3b (Homo sapiens, UniProt P49841); experiment: Cerep LANCE kinase assay hGSK3b (S1 assay 34); format: biochemical; conditions: for IC50: read-out: hGSK3b LANCE summarized IC50
T4 construct: purchased Cerep (LANCE kinase assay platform, contract assay)

[15] = target: T5, hp70S6K1 (RPS6KB1) (Homo sapiens, UniProt P23443); experiment: Cerep LANCE kinase assay hp70S6K1 (S1 assay 31); format: biochemical; conditions: for IC50: read-out: hp70S6K1 LANCE summarized IC50
T5 construct: purchased Cerep (LANCE kinase assay platform, contract assay)

[16] = tested on: HCT116 cells treated with a GSK3β inhibitor; experiment: cells; format: cell-based
[17] = assay number 14, 2N, read-out: Hela CellCycMod PI 2N summarized IC50
[18] = assay number 16, 4N, read-out: Hela CellCycMod PI 4N summarized IC50
[19] = assay number 17, MI, read-out: Hela CellCycMod PI MI summarized IC50

T3 sequence (P35968 20-1356): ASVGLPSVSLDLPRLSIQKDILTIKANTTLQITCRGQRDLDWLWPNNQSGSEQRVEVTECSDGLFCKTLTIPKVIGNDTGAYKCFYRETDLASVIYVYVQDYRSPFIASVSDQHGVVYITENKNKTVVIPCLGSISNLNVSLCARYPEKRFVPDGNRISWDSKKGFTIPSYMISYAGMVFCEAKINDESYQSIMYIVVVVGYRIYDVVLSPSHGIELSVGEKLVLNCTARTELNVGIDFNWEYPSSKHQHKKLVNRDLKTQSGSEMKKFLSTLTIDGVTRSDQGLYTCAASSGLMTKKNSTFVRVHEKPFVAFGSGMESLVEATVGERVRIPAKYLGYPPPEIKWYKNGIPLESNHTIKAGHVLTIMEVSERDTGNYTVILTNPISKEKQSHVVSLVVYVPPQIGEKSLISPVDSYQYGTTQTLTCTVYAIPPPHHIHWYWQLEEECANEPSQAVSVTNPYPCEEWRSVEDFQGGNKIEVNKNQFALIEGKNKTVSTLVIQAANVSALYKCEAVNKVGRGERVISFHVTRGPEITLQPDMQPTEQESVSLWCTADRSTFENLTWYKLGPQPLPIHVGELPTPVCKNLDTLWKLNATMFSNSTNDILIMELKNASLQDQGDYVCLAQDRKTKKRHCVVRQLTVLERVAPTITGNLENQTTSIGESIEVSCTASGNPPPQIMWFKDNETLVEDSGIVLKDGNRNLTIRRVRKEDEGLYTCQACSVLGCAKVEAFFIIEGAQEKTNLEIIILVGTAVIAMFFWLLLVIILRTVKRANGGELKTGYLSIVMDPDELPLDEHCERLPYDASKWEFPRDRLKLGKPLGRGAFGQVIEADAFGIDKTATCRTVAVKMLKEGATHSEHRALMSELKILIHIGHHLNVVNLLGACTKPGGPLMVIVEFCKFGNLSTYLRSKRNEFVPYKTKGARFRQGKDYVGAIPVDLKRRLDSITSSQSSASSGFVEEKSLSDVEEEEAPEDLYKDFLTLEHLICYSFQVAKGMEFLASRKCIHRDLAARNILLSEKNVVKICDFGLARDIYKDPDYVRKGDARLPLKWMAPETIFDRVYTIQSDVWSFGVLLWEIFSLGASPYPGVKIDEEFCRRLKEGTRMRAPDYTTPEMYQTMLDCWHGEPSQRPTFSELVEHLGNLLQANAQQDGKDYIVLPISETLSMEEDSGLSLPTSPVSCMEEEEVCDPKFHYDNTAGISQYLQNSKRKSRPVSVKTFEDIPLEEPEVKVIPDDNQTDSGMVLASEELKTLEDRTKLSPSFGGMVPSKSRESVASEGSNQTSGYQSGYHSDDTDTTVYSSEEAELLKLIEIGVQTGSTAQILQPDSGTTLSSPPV
T1 sequence (O60674 whole entry): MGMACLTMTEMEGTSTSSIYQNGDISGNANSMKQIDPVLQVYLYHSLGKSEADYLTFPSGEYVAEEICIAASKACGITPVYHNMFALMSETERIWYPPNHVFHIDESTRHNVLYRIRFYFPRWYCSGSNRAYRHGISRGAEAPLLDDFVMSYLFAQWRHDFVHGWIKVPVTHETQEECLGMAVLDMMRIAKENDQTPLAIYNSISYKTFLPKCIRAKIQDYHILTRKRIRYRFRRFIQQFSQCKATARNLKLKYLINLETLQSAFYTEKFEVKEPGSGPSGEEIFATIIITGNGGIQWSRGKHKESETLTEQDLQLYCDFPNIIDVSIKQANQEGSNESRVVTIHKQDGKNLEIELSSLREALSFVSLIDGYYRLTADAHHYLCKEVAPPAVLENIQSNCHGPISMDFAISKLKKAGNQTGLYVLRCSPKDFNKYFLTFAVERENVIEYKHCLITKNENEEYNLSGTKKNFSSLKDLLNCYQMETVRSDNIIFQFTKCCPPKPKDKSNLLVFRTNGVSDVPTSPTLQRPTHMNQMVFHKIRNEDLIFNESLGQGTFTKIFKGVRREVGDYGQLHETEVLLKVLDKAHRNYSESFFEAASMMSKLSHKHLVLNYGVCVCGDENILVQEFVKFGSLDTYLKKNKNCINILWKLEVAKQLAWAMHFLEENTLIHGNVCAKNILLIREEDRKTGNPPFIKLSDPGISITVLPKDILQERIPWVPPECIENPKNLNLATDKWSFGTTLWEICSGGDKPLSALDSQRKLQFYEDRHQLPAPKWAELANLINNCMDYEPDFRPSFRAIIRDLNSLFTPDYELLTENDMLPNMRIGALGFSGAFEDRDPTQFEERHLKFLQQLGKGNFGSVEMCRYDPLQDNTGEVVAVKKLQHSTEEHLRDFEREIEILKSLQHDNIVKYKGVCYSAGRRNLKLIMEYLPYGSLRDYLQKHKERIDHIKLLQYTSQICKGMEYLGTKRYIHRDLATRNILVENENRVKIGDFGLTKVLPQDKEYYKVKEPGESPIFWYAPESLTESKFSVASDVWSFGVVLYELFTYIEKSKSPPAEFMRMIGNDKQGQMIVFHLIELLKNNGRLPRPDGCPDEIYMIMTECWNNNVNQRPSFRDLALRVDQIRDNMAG
T4 sequence (P49841 whole entry): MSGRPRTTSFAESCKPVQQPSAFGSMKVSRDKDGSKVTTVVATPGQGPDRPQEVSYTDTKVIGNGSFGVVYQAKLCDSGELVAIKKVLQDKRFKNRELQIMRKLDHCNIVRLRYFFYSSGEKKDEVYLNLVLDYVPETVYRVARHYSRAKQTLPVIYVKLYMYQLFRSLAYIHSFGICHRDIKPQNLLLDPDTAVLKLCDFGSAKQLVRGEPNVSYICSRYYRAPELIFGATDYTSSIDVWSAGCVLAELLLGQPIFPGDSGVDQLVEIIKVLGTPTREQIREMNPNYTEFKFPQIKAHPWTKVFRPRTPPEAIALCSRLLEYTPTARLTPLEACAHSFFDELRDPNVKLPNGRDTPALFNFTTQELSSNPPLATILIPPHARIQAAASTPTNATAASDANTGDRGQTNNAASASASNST
T2 sequence (P36888 27-993): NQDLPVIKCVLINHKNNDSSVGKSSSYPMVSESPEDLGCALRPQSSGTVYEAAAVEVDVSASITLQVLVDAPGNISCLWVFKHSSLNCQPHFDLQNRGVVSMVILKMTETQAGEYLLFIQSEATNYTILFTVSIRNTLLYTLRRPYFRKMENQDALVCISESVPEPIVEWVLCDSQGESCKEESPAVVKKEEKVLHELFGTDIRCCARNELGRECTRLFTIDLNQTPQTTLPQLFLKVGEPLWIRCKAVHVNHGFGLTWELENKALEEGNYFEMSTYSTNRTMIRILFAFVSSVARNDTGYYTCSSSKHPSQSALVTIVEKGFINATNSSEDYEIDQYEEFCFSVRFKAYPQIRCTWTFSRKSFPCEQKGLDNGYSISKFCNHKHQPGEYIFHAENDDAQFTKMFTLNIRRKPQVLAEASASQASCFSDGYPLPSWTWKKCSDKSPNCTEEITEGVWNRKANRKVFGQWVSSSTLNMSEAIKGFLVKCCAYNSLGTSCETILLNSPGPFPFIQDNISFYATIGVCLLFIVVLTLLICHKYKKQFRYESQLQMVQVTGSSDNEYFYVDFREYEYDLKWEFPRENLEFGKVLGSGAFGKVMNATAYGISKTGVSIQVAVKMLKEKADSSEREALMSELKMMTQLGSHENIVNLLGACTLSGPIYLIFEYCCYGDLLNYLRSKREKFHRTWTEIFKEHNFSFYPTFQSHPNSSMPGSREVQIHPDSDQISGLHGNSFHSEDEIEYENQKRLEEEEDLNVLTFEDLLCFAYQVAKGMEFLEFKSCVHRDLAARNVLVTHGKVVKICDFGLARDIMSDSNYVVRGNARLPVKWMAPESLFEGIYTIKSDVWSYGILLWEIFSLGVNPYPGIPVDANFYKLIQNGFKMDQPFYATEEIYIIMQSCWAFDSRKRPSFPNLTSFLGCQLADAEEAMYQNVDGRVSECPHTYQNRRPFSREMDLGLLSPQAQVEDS
T5 sequence (P23443 whole entry): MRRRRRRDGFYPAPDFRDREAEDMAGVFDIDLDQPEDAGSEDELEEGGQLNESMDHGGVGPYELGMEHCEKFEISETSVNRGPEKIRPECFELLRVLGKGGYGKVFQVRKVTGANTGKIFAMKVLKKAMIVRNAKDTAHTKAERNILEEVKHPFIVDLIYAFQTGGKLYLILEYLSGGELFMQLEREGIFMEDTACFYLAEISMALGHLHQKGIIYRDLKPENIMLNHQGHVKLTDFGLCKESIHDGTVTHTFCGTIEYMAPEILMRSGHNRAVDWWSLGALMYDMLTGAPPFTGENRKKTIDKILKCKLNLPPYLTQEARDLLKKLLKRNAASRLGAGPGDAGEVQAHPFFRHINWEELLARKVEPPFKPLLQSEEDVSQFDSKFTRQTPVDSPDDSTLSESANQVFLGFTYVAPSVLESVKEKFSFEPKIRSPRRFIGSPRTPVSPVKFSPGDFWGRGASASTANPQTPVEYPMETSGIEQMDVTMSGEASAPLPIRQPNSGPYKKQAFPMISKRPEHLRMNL

Oc1c(I)cc(I)c2cccnc12 [NCGC00018098-07]
IC50 [1]: > 10 µM
IC50 ([2]; assay number 33): > 20 µM
IC50 ([3]; assay number 35): > 20 µM
IC50 ([4]; assay number 32): > 20 µM
IC50 ([5]; assay number 29, basal): 0.0227 µM
IC50 ([6]; assay number 23, basal): 0.0178 µM
IC50 ([7]; assay number 24, basal): 0.0036 µM
IC50 ([8]; assay number 25): 0.041 µM
IC50 ([9]; assay number 28, basal): 0.705 µM
IC50 ([10]; assay number 30, basal): 0.0387 µM
IC50 ([11]; assay number 27, basal): 0.0213 µM
IC50 [12, 17]: > 10 µM
IC50 [12, 18]: > 10 µM
IC50 [12, 19]: > 10 µM
IC50 ([12]; assay number 18, cell number, read-out: Hela CellCycMod PI Cell Number summarized IC50): > 10 µM
IC50 [13]: 2.39 µM
IC50 ([14]; assay number 34): > 20 µM
IC50 ([15]; assay number 31): > 20 µM

O=C(O)c1ccc(-n2nc(-c3ccccc3O)nc2-c2ccccc2O)cc1 [NCGC00263572-01]
VEGF_ADSC\ECFC Angio Hoechst NucArea IC50/EC50 [1]: > 10 µM
hJAK2 LANCE IC50/EC50 ([2]; assay number 33): 18.21 µM
GSK3b inh pretreated_Viability ATP HCT116 IC50/EC50 ([16]; assay number 26, GSK3b inhibitor pretreated): 0.2423 µM
hFLT3 LANCE IC50/EC50 ([3]; assay number 35): > 20 µM
hKDR LANCE IC50/EC50 ([4]; assay number 32): > 20 µM
Basal_Viability ATP RKO IC50/EC50 ([5]; assay number 29): 0.1001 µM
Basal_Viability ATP DLD-1 IC50/EC50 ([6]; assay number 23): 0.6507 µM
Basal_Viability ATP SW480 IC50/EC50 ([7]; assay number 24): 0.0776 µM
Basal_Viability ATP HCT116 IC50/EC50 ([8]; assay number 25): 0.4376 µM
Basal_Viability ATP HT-29 IC50/EC50 ([9]; assay number 28): 0.5159 µM
Basal_Viability ATP SNU-C1 IC50/EC50 ([10]; assay number 30): 0.2328 µM
Basal_Viability ATP Colo 320 IC50/EC50 ([11]; assay number 27): 0.4085 µM
Hela CellCycMod PI 2N IC50/EC50 ([12]; assay number 14, 2N): > 10 µM
Hela CellCycMod PI 4N IC50/EC50 ([12]; assay number 16, 4N): > 10 µM
Hela CellCycMod PI MI IC50/EC50 ([12]; assay number 17, MI): > 10 µM
Hela CellCycMod PI Cell Number IC50/EC50 ([12]; assay number 18, cell number): 5.678 µM
VEGF_ADSC\ECFC Angio CD31 TubeArea IC50/EC50 [13]: 2.0862 µM
hGSK3b LANCE IC50/EC50 ([14]; assay number 34): > 20 µM
hp70S6K1 LANCE IC50/EC50 ([15]; assay number 31): > 20 µM

Oc1c(Cl)cc(Cl)c2cccnc12 [NCGC00095264-04]
IC50 [1]: > 10 µM
IC50 ([2]; assay number 33): > 20 µM
IC50 ([16]; assay number 26, GSK3b inhibitor pretreated, read-out: GSK3b inh pretreated_Viability ATP HCT116 summarized IC50): 0.0393 µM
IC50 ([3]; assay number 35): > 20 µM
IC50 ([4]; assay number 32): > 20 µM
IC50 ([5]; assay number 29, basal): 0.0627 µM
IC50 ([6]; assay number 23, basal): 0.409 µM
IC50 ([7]; assay number 24, basal): 0.0438 µM
IC50 ([8]; assay number 25): 0.0475 µM
IC50 ([9]; assay number 28, basal): > 20 µM
IC50 ([10]; assay number 30, basal): 0.495 µM
IC50 ([11]; assay number 27, basal): 0.0493 µM
IC50 [12, 17]: > 10 µM
IC50 [12, 18]: > 10 µM
IC50 [12, 19]: > 10 µM
IC50 [13]: 2 µM
IC50 ([14]; assay number 34): > 20 µM
IC50 ([15]; assay number 31): > 20 µM

Cn1cnc([N+](=O)[O-])c1Sc1ncnc2nc[nH]c12 [NCGC00015060-18]
IC50/EC50, hJAK2 LANCE (assay number 33) [2]: > 20 µM
IC50/EC50, GSK3b inh pretreated_Viability ATP HCT116 (assay number 26) ([16]; GSK3b inh pretreated): 0.6232 µM
IC50/EC50, hFLT3 LANCE (assay number 35) [3]: > 20 µM
IC50/EC50, hKDR LANCE (assay number 32) [4]: > 20 µM
IC50/EC50, Basal_Viability ATP RKO (assay number 29) ([5]; basal): 2.661 µM
IC50/EC50, Basal_Viability ATP DLD-1 (assay number 23) ([6]; basal): 0.3635 µM
IC50/EC50, Basal_Viability ATP SW480 (assay number 24) ([7]; basal): 9.4353 µM
IC50/EC50, Basal_Viability ATP HCT116 (assay number 25) [8]: 0.2074 µM
IC50/EC50, Basal_Viability ATP HT-29 (assay number 28) ([9]; basal): > 20 µM
IC50/EC50, Basal_Viability ATP SNU-C1 (assay number 30) ([10]; basal): > 20 µM
IC50/EC50, Basal_Viability ATP Colo 320 (assay number 27) ([11]; basal): 10.3402 µM
IC50/EC50, Hela CellCycMod PI 2N (assay number 14) ([12]; 2N): > 10 µM
IC50/EC50, Hela CellCycMod PI 4N (assay number 16) ([12]; 4N): > 10 µM
IC50/EC50, Hela CellCycMod PI Cell Number (assay number 18) ([12]; Cell Number): > 10 µM
IC50/EC50, Hela CellCycMod PI MI (assay number 17) ([12]; MI): > 10 µM
IC50/EC50, Hela CellCycMod PI S Phase (assay number 15) ([12]; S Phase): > 10 µM
IC50/EC50, hGSK3b LANCE (assay number 34) [14]: > 20 µM
IC50/EC50, hp70S6K1 LANCE (assay number 31) [15]: > 20 µM
